One series relates to osteoporosis patients. Also on record: method as in PMID 15687321, PMID 20398037. The settings on record: 52 weeks; cited from earlier work.
Series [1] deals with normal human lung fibroblasts. The series can be described thus: TGFβ-induced αSMA high-content imaging. The series is classed as cell-based. The settings on record: 10 μM, 30 min pre-treatment, TGFβ 5 ng/mL, 48 h. How it is done:
Normal human lung fibroblasts (Lonza) and Primary Human IPF Lung Parenchymal Fibroblasts (Donor2) (BioIVT, #PCR-70-0214) were incubated at 37 °C and 5% CO2. To induce fibrotic response in primary cells, a final concentration of 5 ng/ml of recombinant human TGFβ1 (BioLegend, #580702) was added to the culture media and treated for 24 ~ 48 h. Anti-TGFβ neutralizing antibody (1D11) and the isotype control mouse IgG1 were from BioXcell. SB-525334 and bleomycin were from Sigma. MK-0429 was synthesized by Merck & Co., Inc., Kenilworth, NJ, USA. CHOK1-integrin stable lines were cultured in DMEM/F12, Glutamax (Gibco #10565018), 10% FBS (Gibco 310091148), 1 × Pen/Strep (Gibco 315140-148), and 6 ug/mL Puromycin (Gibco #A1113803).
Primary cells (passage 3–5) were grown on Cell carrier Ultra, col1 coated 96-well plates (Perkin Elmer, #6055700) at a density of 25,000 cells/well. Once the cells adhere, they were starved in serum free media for 24 h followed by addition of treatments i.e. 5 ng/mL TGFβ (Biolegend #580702) ± inhibitors. Cells were pre-treated with inhibitors for 30 min prior to the addition of TGFβ stimulation. 48hours post treatment, the cells were fixed in 4% methanol free paraformaldehyde (ThermoFisher Scientific #28908) for 20 min at room temperature and incubated with anti-alpha smooth muscle Actin antibody (Abcam #ab7817) at 1:4000 overnight at 4 °C. […]

Details of series [2]: method as in PMID 15687321. The settings on record: humans; cited from earlier work.
Series [3] deals with bleomycin-induced lung fibrosis. The series can be described thus: Bleomycin-induced lung fibrosis mouse model. The series is classed as in vivo. The settings on record: BLM mice, Nintedanib 60 mpk po qd. How it is done:
Adult male C57BL/6 mice (Taconic, Rensselaer, NY) were housed in a temperature and humidity-controlled facility with a 12 h light: 12-h dark cycle. Animals had ad libitum access to food (Purina Rodent Chow 5053, LabDiet, St. Louis, MO) and water. All procedures utilizing experimental animals were conducted in accordance with the Guide for the Care and Use of Laboratory Animals, and experimental procedures were reviewed and approved by the Institutional Animal Care and Use Committee at MRL, Kenilworth, NJ. For osmotic minipump implantation, TFA salt of MK-0429 was formulated in 50% DMSO/50% H2O at a concentration of 416 mg/mL. MK-0429 or vehicle solution were filled in minipumps (Alzet, # 1007D, flow rate 0.5 μL/h). Minipumps were placed in mice subcutaneously in a pocket on the back between the shoulder blades. A small incision was made and a subcutaneous pocket formed by blunt dissection. A sterile minipump was inserted into the subcutaneous pocket. The incision was closed with staples or non-absorbable suture or absorbable (subcuticular) suture. The minipumps were used for continuous drug delivery for 2 weeks. Mice at 12 ~ 13 weeks of age were randomized to 5 groups: saline, bleomycin instillation with vehicle (osmotic minipump), bleomycin instillation with MK-0429 treatment, bleomycin instillation with vehicle oral treatment, and bleomycin instillation with Nintedanib treatment. All mice were anaesthetized with isoflurane. Bleomycin was dosed by intra-tracheal (i.t) instillation in a volume of 50 µl, at a dose of 1unit /kg body weight. After instillation, mice were kept in a heads-up position for 2–5 min before putting into cages. MK-0429 (200 mg/kg) was administered by Osmotic pump from day 5 to day 14 and Nintedanib (60 mg/kg) was administered, p.o., q.d., for 14 days. Vehicle was dosed orally at 10 am daily from the day 5 to the end of the studies and dosing volume was 10 mL/kg. For plasma PK analysis, an aliquot of 50 μL plasma was spiked into a 96-well plate, and 200 μL of acetonitrile containing internal standard were added for protein precipitation. The mixture was vortexed, centrifuged at 4000 rpm for 20 min. 50 μL of supernatant were mixed with 200 μl H2O and the final solution were injected for LC–MS/MS analysis. The methods for quantitative analysis were developed on UPLC (Waters) chromatographic system equipped with an API4000 QTrap mass spectrometer (Applied Biosystems, Concord, Ontario, Canada). Analyst 1.5 software packages (Applied Biosystems) were used to control the LC–MS/MS system and data acquisition and processing. Upon completion of the study, animals were euthanized and tissues were collected for histological assessment. Lung tissues were perfused with 10% formalin, fixed for 24 h, and then paraffin embedded. Tissue sections were stained with hematoxylin & eosin (H&E) and Masson’s trichrome, subsequently evaluated under light microscope. The severity of histopathologic changes and fibrosis in the lung were graded as described previously by pathologists[51],[52]. Following deparaffinization and rehydration, each lung tissue section was processed to identify αSMA deposition by immunohistochemistry. The primary antibodies used were αSMA antibody from Sigma. The Aperio ScanScope XT Slide Scanner (Aperio Technologies) system was used to capture whole slide digital images with a 20 × objective. Digital images were managed using Aperio Spectrum. The positive stains were identified and quantified using a macro created from a color deconvolution algorithm (Aperio Technologies). Statistical analysis was performed by using One-way ANOVA followed by Tukey’s test.

[4] abbreviates: treatment from day 5 for 14 days, MK-0429 200 mpk osmotic minipump, vs BLM-vehicle.

We go through one compound from article PMC7822819, “Discovery of a new class of integrin antibodies for fibrosis” (Scientific Reports, 2021).

SMILES strings stand for the structures.

With `COc1ccc(C(CC(=O)O)N2CCN(CCCc3ccc4c(n3)NCCC4)C2=O)cn1` (centres unmarked) [MK-0429], in the series on osteoporosis patients, the Safety profile result is given as “relatively well-tolerated”. Besides, the “αSMA intensity and percentage of stimulated cells following TGFβ treatment” value in series [1] was “significantly reduced”. Moreover, in series [2], the Oral bioavailability entry was “good”. For the same compound, the “TIMP-1 content in BALF” value in series [3] (14 days treatment, MK-0429 200 mpk minipump) was “did not reach statistical significance”. In addition, in series [3] (setting [4]), the “Modified Ashcroft score of mouse lung” value is “significantly decreased”, the “Total inflammation area in mouse lungs” value was “nonstatistical significant decrease” and the “αSMA immunohistochemistry in lung” value was “significantly decreased”. In series [3] (MK-0429 200 mpk minipump), the “Body weight vs bleomycin group” value is given as “no significant body weight difference”.
